Reference: ChEMBL document CHEMBL1142966, “Enhanced antileukemic activity of the novel complex 2,5-dihydroxybenzoate molybdenum(VI) against 2,5-dihydroxybenzoate, polyoxometalate of Mo(VI), and tetraphenylphosphonium in the human HL-60 and K562 leukemic cell lines” (J Med Chem, 2007)

How the values were obtained:
Format in all cases: cell-based
[1] = tested on: HL-60; experiment: Cytotoxicity against human HL60 cells at 10 ug/mL by trypan blue assay after 24 hrs; details: hl-60, 24 h
[2] = tested on: HL-60; experiment: Cytotoxicity against human HL60 cells at 10 ug/mL by trypan blue assay after 48 hrs; details: hl-60, 48 h
[3] = tested on: HL-60; experiment: Cytotoxicity against human HL60 cells at 10 ug/mL by trypan blue assay after 72 hrs; details: hl-60, 72 h
[4] = tested on: HL-60; experiment: Cytotoxicity against human HL60 cells at 100 ug/mL by trypan blue assay after 24 hrs; details: hl-60, 24 h
[5] = tested on: HL-60; experiment: Cytotoxicity against human HL60 cells at 100 ug/mL by trypan blue assay after 48 hrs; details: hl-60, 48 h
[6] = tested on: HL-60; experiment: Cytotoxicity against human HL60 cells at 100 ug/mL by trypan blue assay after 72 hrs; details: hl-60, 72 h
[7] = tested on: HL-60; experiment: Cytotoxicity against human HL60 cells at 1000 ug/mL by trypan blue assay after 24 hrs; details: hl-60, 24 h
[8] = tested on: HL-60; experiment: Cytotoxicity against human HL60 cells at 1000 ug/mL by trypan blue assay after 48 hrs; details: hl-60, 48 h
[9] = tested on: HL-60; experiment: Cytotoxicity against human HL60 cells at 1000 ug/mL by trypan blue assay after 72 hrs; details: hl-60, 72 h
[10] = tested on: K562; experiment: Cytotoxicity against human K562 cells at 10 ug/mL by trypan blue assay after 24 hrs; details: k562, 24 h
[11] = tested on: HL-60; experiment: Cytotoxicity against human HL60 cells at 10000 ug/mL by trypan blue assay after 24 hrs; details: hl-60, 24 h
[12] = tested on: HL-60; experiment: Cytotoxicity against human HL60 cells at 10000 ug/mL by trypan blue assay after 48 hrs; details: hl-60, 48 h
[13] = tested on: HL-60; experiment: Cytotoxicity against human HL60 cells at 10000 ug/mL by trypan blue assay after 72 hrs; details: hl-60, 72 h
[14] = tested on: K562; experiment: Cytotoxicity against human K562 cells at 10 ug/mL by trypan blue assay after 48 hrs; details: k562, 48 h
[15] = tested on: K562; experiment: Cytotoxicity against human K562 cells at 10 ug/mL by trypan blue assay after 72 hrs; details: k562, 72 h
[16] = tested on: K562; experiment: Cytotoxicity against human K562 cells at 100 ug/mL by trypan blue assay after 24 hrs; details: k562, 24 h
[17] = tested on: K562; experiment: Cytotoxicity against human K562 cells at 100 ug/mL by trypan blue assay after 48 hrs; details: k562, 48 h
[18] = tested on: K562; experiment: Cytotoxicity against human K562 cells at 100 ug/mL by trypan blue assay after 72 hrs; details: k562, 72 h
[19] = tested on: K562; experiment: Cytotoxicity against human K562 cells at 1000 ug/mL by trypan blue assay after 24 hrs; details: k562, 24 h
[20] = tested on: K562; experiment: Cytotoxicity against human K562 cells at 1000 ug/mL by trypan blue assay after 48 hrs; details: k562, 48 h
[21] = tested on: K562; experiment: Cytotoxicity against human K562 cells at 1000 ug/mL by trypan blue assay after 72 hrs; details: k562, 72 h
[22] = tested on: K562; experiment: Cytotoxicity against human K562 cells at 10000 ug/mL by trypan blue assay after 24 hrs; details: k562, 24 h
[23] = tested on: K562; experiment: Cytotoxicity against human K562 cells at 10000 ug/mL by trypan blue assay after 48 hrs; details: k562, 48 h
[24] = tested on: K562; experiment: Cytotoxicity against human K562 cells at 10000 ug/mL by trypan blue assay after 72 hrs; details: k562, 72 h

## [Cl-].c1ccc([P+](c2ccccc2)(c2ccccc2)c2ccccc2)cc1 [TETRAPHENYLPHOSPHONIUM CHLORIDE]
[1]
  Activity: 1%
[2]
  Activity: 100%
[3]
  Activity: 100%
[4]
  Activity: 4.5%
[5]
  Activity: 100%
[6]
  Activity: 100%
[7]
  Activity: 100%
[8]
  Activity: 100%
[9]
  Activity: 100%
[10]
  Activity: 56.8%
[11]
  Activity: 100%
[12]
  Activity: 100%
[13]
  Activity: 100%
[14]
  Activity: 100%
[15]
  Activity: 100%
[16]
  Activity: 41.8%
[17]
  Activity: 100%
[18]
  Activity: 100%
[19]
  Activity: 100%
[20]
  Activity: 100%
[21]
  Activity: 100%
[22]
  Activity: 100%
[23]
  Activity: 100%
[24]
  Activity: 100%
